Literature values, collected in patent publication US20210368800A1, “Quickly, easily, and economically creating and maintaining a low bio-load on surfaces that may be large and/or of complex contour and finish” (priority 2020, published 2021).

How the values were obtained:
norovirus = settings: at 50 ppm; electrolytically generated hypochlorous acid

## OCl [hypochlorous acid, Hypochlorous Acid]
Coronavirus 0C43
  effective in eliminating coronavirus 0C43: more than 99.999%
norovirus
  time to kill norovirus: less than one
